This is an account of results in PMC10648349, “Aromatic Diboronic Acids as Effective KPC/AmpC Inhibitors” (Molecules, 2023).

The subject of assay [1] is E. coli 77 CMY-2-positive. Put plainly: combination disc test CDT-AmpC. The format is cell-based. Conditions: Escherichia coli, read-out: Diameter of inhibition zone, CAZ-30 disc with agent; for zone of inhibition at 100 µg/disc: agent 0.1 mg per disc.
Assay [2] deals with K. pneumoniae 81 KPC-3-positive. Put plainly: checkerboard microdilution, antibiotic plus tested agent. Format: cell-based, Klebsiella pneumoniae. In a few lines: (§1)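 Read-out is the antibiotic MIC with agent present, plus FICI = combined/alone MIC ratios summed for both partners. Meropenem pairs served for carbapenemase strains and ceftazidime pairs for the AmpC strain. Agent or PBA was tested at 4–16 mg/L.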

The subject of assay [3] is K. pneumoniae 83 KPC-3-positive, CTX-M-3-positive. Described as above. The format is cell-based, Klebsiella pneumoniae. In a few lines:
as §1

Assay [4] relates to K. pneumoniae ATCC BAA-1705 KPC-2-positive. The assay is described as above. The format is cell-based, Klebsiella pneumoniae. In a few lines:
as §1

Assay [5] deals with C. guilliermondii IBA 155. Put plainly: antifungal activity (disc-diffusion, MIC, MFC). Format: cell-based, Candida guilliermondii. Conditions: Meyerozyma guilliermondii, IBA155; for zone of inhibition at 0.4 mg/disc: 0.4 mg per disc, 9 mm disc (fluconazole 0.025 mg, 6 mm disc), - no zone, read-out: Diameter of inhibition zone; for MIC: fluconazole by Etest. In outline: (§2)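 Susceptibility endpoints: inhibition zones (0.4 mg per disc), MIC, MBC for bacteria, MFC for yeasts. Compounds were solubilised in DMSO; nitrofurantoin, linezolid or fluconazole served as comparators per organism type.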
Background: In agar diffusion tests the substance spreads into inoculated agar from a disc or well.

The test system of assay [6] is C. parapsilosis ATCC 22019. Put plainly: antifungal activity (disc-diffusion, MIC, MFC). Format: cell-based, Candida parapsilosis. Conditions: Lodderomyces parapsilosis, ATCC22019; for zone of inhibition at 0.4 mg/disc: 0.4 mg per disc, 9 mm disc (fluconazole 0.025 mg, 6 mm disc), - no zone, read-out: Diameter of inhibition zone; for MIC: fluconazole by Etest. In outline:
as §2

The next assay concerns C. tropicalis IBA 171. Nature of the assay: antifungal activity (disc-diffusion, MIC, MFC). Conditions: Candida tropicalis, IBA171; for MIC: fluconazole by Etest. The format is cell-based. In a few lines: as §2
For another assay, the system named is C. tropicalis ATCC 750. Put plainly: antifungal activity (disc-diffusion, MIC, MFC). The format is cell-based. Conditions: Candida tropicalis, ATCC750; for MIC: fluconazole by Etest. In outline: as §2
The next assay relates to C. albicans ATCC 90028. Nature of the assay: antifungal activity (disc-diffusion, MIC, MFC). Format: cell-based. Conditions: Candida albicans, ATCC90028; for MIC: fluconazole by Etest. In a few lines:
as §2

For the next assay, the system named is S. cerevisiae ATCC 9763. Put plainly: antifungal activity (disc-diffusion, MIC, MFC). Format: cell-based. Conditions: Saccharomyces cerevisiae, ATCC9763; for zone of inhibition at 0.4 mg/disc: 0.4 mg per disc, 9 mm disc (fluconazole 0.025 mg, 6 mm disc), - no zone, read-out: Diameter of inhibition zone; for MIC: fluconazole by Etest. In a few lines:
as §2

For assay [7], the system named is E. coli 76 KPC-2-positive. Nature of the assay: checkerboard microdilution, antibiotic plus tested agent. The format is cell-based, Escherichia coli. In a few lines: as §1
(Dilution methods test growth across graded concentrations, often in twofold steps.)

The subject of the next assay is E. coli 77 CMY-2(+). Put plainly: screening test of direct antimicrobial activity (STDA), disc-diffusion. The format is cell-based. Conditions: Escherichia coli; 0.3 mg per disc; - no zone; read-out: Diameter of inhibition zone around disc with tested agent. As to the method: (§3) Prior to combination disc tests, screening tests of direct antimicrobial activity (STDA) of the tested agent against β-lactamase-producing strains were performed by the disc-diffusion method. Discs with 0.3 mg, 0.1 mg, and 0.03 mg of each agent were examined. The highest amount of an agent that caused no effect on bacterial growth was used in further experiments.

The subject of assay [8] is K. pneumoniae ATCC 700603 ESBL(+). Described as above. The format is cell-based. Conditions: Klebsiella pneumoniae, ATCC700603; 0.3 mg per disc; - no zone; read-out: Diameter of inhibition zone around disc with tested agent. As to the method:
as §3

Assay [9] has as its system P. aeruginosa MUW 700 AmpC(+). The description is as above. Format: cell-based. Conditions: Pseudomonas aeruginosa; 0.3 mg per disc; - no zone; read-out: Diameter of inhibition zone around disc with tested agent. As to the method: as §3
Assay [10] concerns K. pneumoniae ATCC BAA 1705 KPC(+). Described as above. Format: cell-based. Conditions: Klebsiella pneumoniae, BAA1705; 0.3 mg per disc; - no zone; read-out: Diameter of inhibition zone around disc with tested agent. As for the experimental part:
as §3

Setting [11] is: 0.4 mg per disc, 9 mm disc (fluconazole 0.025 mg, 6 mm disc), - no zone, read-out: Diameter of inhibition zone.

Converted amounts (≈) assume the structure as drawn. Bounds are passed on as bounds.

With `OB(O)c1cc(F)c(B(O)O)cc1F` [1e], the zone of inhibition at 100 µg/disc in [1] is 20 mm. In addition, the “Average FICI with ERT” value came out at 0.55 in assay [2], 0.63 in [3], 0.88 in assay [4] and 0.39 in [7]. Moreover, the “Average FICI with IMI” value in [2] came out at 0.38; in assay [3], 0.55; in [4] it was 0.71; in assay [7] it was 0.51. The “Average FICI with MEM” value is listed as 0.46 in assay [2], 0.63 in assay [3], 0.46 in assay [4] and 0.51 in assay [7]. For the same molecule, the “The lowest FICI with ERT” value in assay [2] is 0.52; in [3], 0.33; in assay [4] it was 0.58; in assay [7], 0.29. For the same molecule, the “The lowest FICI with IMI” value in assay [2] is reported as 0.29; in assay [3] it was 0.52; in [4] it was 0.54; in assay [7], 0.41. Besides, the “The lowest FICI with MEM” value in [2] is given as 0.33; in assay [3] it was 0.33; in assay [4], 0.33; in assay [7] it was 0.41. Further, the zone of inhibition at 0.4 mg/disc was 16 mm in assay [5], 15 mm in assay [6] and 13 mm in the assay on S. cerevisiae ATCC 9763. Besides, the MIC in [5] is more than 400 mg/L; in [6], more than 400 mg/L; in the assay with C. tropicalis IBA 171, more than 400 mg/L; with C. tropicalis ATCC 750 it was more than 400 mg/L; with C. albicans ATCC 90028, more than 400 mg/L; with S. cerevisiae ATCC 9763 it was 400 mg/L (≈ 1980 µM). In addition, the zone of inhibition at 300 µg/disc with E. coli 77 CMY-2(+) is 18 mm; in assay [8] it was 14 mm; in assay [9] it was 14 mm; in assay [10], 15 mm.
For `OB(O)c1cc(B(O)O)c(F)cc1F` [2c], the zone of inhibition at 100 µg/disc in [1] came to 19 mm. In addition, the MIC (in assay [5]; in [6]; in the assay with C. tropicalis IBA 171; in the assay with C. tropicalis ATCC 750; with C. albicans ATCC 90028; in the assay with S. cerevisiae ATCC 9763) was more than 400 mg/L throughout. Moreover, the zone of inhibition at 300 µg/disc was found to be 15 mm in the assay with E. coli 77 CMY-2(+), 13 mm in assay [8], 11 mm in assay [9] and 14 mm in [10].
On to `OB(O)c1ccc(F)cc1B(O)O` [3c], for which, in [1] (agent 0.3 mg per disc), the zone of inhibition at 300 µg/disc stood at 20 mm. For the same molecule, the “Average FICI with ERT” value was 0.22 in [2], 0.43 in assay [3], 0.43 in assay [4] and 0.43 in assay [7]. The “Average FICI with IMI” value in assay [2] worked out at 0.18; in assay [3], 0.35; in [4] it was 0.35; in assay [7], 0.22. Further, the “Average FICI with MEM” value in assay [2] came out at 0.18; in assay [3] it was 0.22; in [4], 0.51; in [7] it was 0.43. Also, the “The lowest FICI with ERT” value turned out to be 0.15 in [2], 0.27 in assay [3], 0.27 in assay [4] and 0.27 in [7]. Besides, the “The lowest FICI with IMI” value in assay [2] turned out to be 0.14; in assay [3] it was 0.26; in [4], 0.26; in [7], 0.15. Further, the “The lowest FICI with MEM” value in [2] came out at 0.14; in assay [3], 0.15; in [4], 0.51; in [7], 0.27. In addition, the MIC in assay [5] was more than 400 mg/L; in assay [6], 100 mg/L (≈ 544 µM); in the assay with C. tropicalis IBA 171, 50 mg/L (≈ 272 µM); in the assay with C. tropicalis ATCC 750 it was 50 mg/L (≈ 272 µM); in the assay on C. albicans ATCC 90028 it was 100 mg/L (≈ 544 µM); against S. cerevisiae ATCC 9763, 100 mg/L (≈ 544 µM).
With `OB(O)c1cc(F)cc(B(O)O)c1` [2b], the zone of inhibition at 100 µg/disc in assay [1] is 21 mm. Further, the MIC (in assay [5]; in assay [6]; with C. tropicalis IBA 171; against C. tropicalis ATCC 750; in the assay with C. albicans ATCC 90028; against S. cerevisiae ATCC 9763) was more than 400 mg/L in each case. For the same molecule, the zone of inhibition at 300 µg/disc with E. coli 77 CMY-2(+) stood at 13 mm; in assay [9] it was 11 mm.
For the molecule `OB(O)c1cc(F)c(B(O)O)c(F)c1F` [1f], the zone of inhibition at 100 µg/disc in [1] stood at 21 mm. Moreover, the zone of inhibition at 0.4 mg/disc in [5] was determined as 29 mm; in assay [6], 20 mm; with C. tropicalis IBA 171 (setting [11]), 20 mm; in the assay with C. tropicalis ATCC 750 (setting [11]), 18 mm; in the assay with C. albicans ATCC 90028 (setting [11]), 24 mm; in the assay with S. cerevisiae ATCC 9763, 20 mm. Further, the MIC came to 50 mg/L (≈ 228 µM) in assay [5]; 100 mg/L (≈ 455 µM) in assay [6]; 50 mg/L (≈ 228 µM) with C. tropicalis IBA 171; 100 mg/L (≈ 455 µM) in the assay with C. tropicalis ATCC 750; 50 mg/L (≈ 228 µM) in the assay with C. albicans ATCC 90028; 50 mg/L (≈ 228 µM) with S. cerevisiae ATCC 9763. In addition, the zone of inhibition at 300 µg/disc worked out at 15 mm in the assay with E. coli 77 CMY-2(+), 18 mm in assay [8], 12 mm in assay [9] and 16 mm in assay [10].
Consider `OB(O)c1cc(F)c(F)c(B(O)O)c1` [2d], for which the zone of inhibition at 100 µg/disc in assay [1] was 21 mm. The MIC in assay [5] is 400 mg/L (≈ 1980 µM); in assay [6], more than 400 mg/L; against C. tropicalis IBA 171 it was more than 400 mg/L; in the assay with C. tropicalis ATCC 750, more than 400 mg/L; in the assay with C. albicans ATCC 90028 it was 400 mg/L (≈ 1980 µM); against S. cerevisiae ATCC 9763, more than 400 mg/L. Moreover, the zone of inhibition at 300 µg/disc was found to be 15 mm in the assay on E. coli 77 CMY-2(+), 11 mm in [8], 12 mm in assay [9] and 11 mm in [10].
For the molecule `OB(O)c1ccc(B(O)O)c(F)c1F` [1c], the zone of inhibition at 100 µg/disc in assay [1] turned out to be 20 mm. For the same molecule, the MIC is more than 400 mg/L in assay [5]; more than 400 mg/L in [6]; more than 400 mg/L with C. tropicalis IBA 171; more than 400 mg/L against C. tropicalis ATCC 750; more than 400 mg/L with C. albicans ATCC 90028; 200 mg/L (≈ 991 µM) against S. cerevisiae ATCC 9763. The zone of inhibition at 300 µg/disc in the assay on E. coli 77 CMY-2(+) stood at 17 mm; in assay [8] it was 14 mm; in [9], 13 mm; in assay [10] it was 12 mm.

For orientation: zone of inhibition means the size of the clear area around the sample on an inoculated plate. What is called MIC is the lowest concentration that inhibits growth of the organism. Lower therefore signals inhibition by little substance.
